These results are taken from US20250018019A1, “TREATMENT OF INTERFERON DRIVEN INFLAMMATION” (The Provost, Fellows, Foundation Scholars and the other …, priority 2023, published 2025).

Counter-ions that a name gives are not always drawn.

Test [1] has as its system BMDMs. As to the kind of experiment: Seahorse XF Glycolysis Stress Test (ECAR). As to conditions: BMDMs pre-treated 3 h, LPS 4 h. It is filed as cell-based, mouse. The procedure:
All compounds used DMSO as a vehicle except for 4-hydroxy tamoxifen (EtOH), NAC (PBS), and AOAA for tracing experiments (Media). LPS was used at a concentration of 100 ng/ml for indicated timepoints (2, 3, 4, 6, 8, 24, 48 h). FHIN1 (10 or 20 μM), MMF (50 or 100 μM), DMF (25 μM), AOAA (5 mM), oligomycin (10 μM), CCCP (50 μM) NAC (1 mM), and IMT1 (10 μM) pre-treatments were performed for 3 h prior the addition of LPS. Cells were treated with valinomycin (10 nM) 15 mins before LPS stimulation. Anti-CD210 or IgG control (10 μg/ml) antibodies were added to cells 1 h prior to LPS stimulation. Recombinant mouse IL-10 protein (100 ng/ml) was added to cells at the same time as LPS. Cells were treated with IFN-B1 (220 ng/ml) for 3 h. Cells were treated with C-178 (1 μM) 1 h prior to LPS stimulation or transfection with 2′3′-cGAMP (1.5 μg/ml) for 4 hrs to achieve cGAS-STING activation. Cells were treated with ODN 2088 (1 μM) for 1 hr prior to LPS stimulation or transfection with CPG ODN 1826 (1.5 μg/ml) to achieve TLR9 activation. 3 different timepoints of 4-hydroxy tamoxifen (TAM) (600 nM or 2 μM) or EtOH treatment were performed-these are specified in the individual figure legends. For ‘48 h’ treatments EtOH/TAM was added on day 5 of 6 during the BMDM differentiation protocol. On day 6 they were plated with EtOH/TAM (left overnight) and treated the following day. […]

Test [2] deals with human macrophages. Kind of test: RT-qPCR gene expression in human macrophages. The format is cell-based. As to conditions: LPS-stimulated human macrophages, LPS 4 h. The procedure: PBMCs were taken, and CD14+ monocytes were isolated using MagniSort Human CD14 Positive Selection Kit (Thermo Fisher) according to the manufacturer's protocol. CD14 Monocytes were then differentiated in T-175 flasks in RPMI containing FCS (10%), penicillin/streptomycin (1%) and recombinant human M-CSF (1:1000). After 6 days, the supernatant was discarded, cells were scraped and counted, and human monocyte-derived macrophages (hMDMs) were plated in 12-well plates at 1×10^6 cells/mL RPMI containing FCS (10%) and penicillin/streptomycin (1%).
All compounds used DMSO as a vehicle except for 4-hydroxy tamoxifen (EtOH), NAC (PBS), and AOAA for tracing experiments (Media). […]
RNA extraction from cells was carried out using a Purelink™ RNA kit (Invitrogen) according to the manufacturer's instructions. […] Isolated RNA was quantified using a NanoDrop 2000 spectrophotometer, and RNA concentration was normalised to the lowest concentration across all samples with RNAse-free water. If necessary, samples were DNAse-treated after quantification using DNAse I (Thermo Fisher) according to the manufacturer's instructions. […] Real-time quantitative PCR was performed on the cDNA generated in the previous step, using primers designed in-house and ordered from Eurofins Genomics, as detailed in Table S2. […] Relative expression (2^−ΔΔCT) was calculated from the CT values for each sample and gene of interest.
(In qPCR the cycle at which signal appears reflects the starting amount.)

Test [3] concerns human PBMCs. Kind of test: RT-qPCR gene expression in human PBMCs. The format is cell-based. The following applies: LPS-stimulated human PBMCs, LPS 4 h. The procedure:
Human blood samples from healthy donors were collected and processed at the School of Biochemistry and Immunology in TBSI (TCD). Blood samples were obtained anonymously and written informed consent for the use of blood for research purposes has been obtained from the donors. All the procedures involving experiments on human samples have been approved by the School of Biochemistry and Immunology Research Ethics Committee (TCD). Experiments were conducted according to the TCD guide on good research practice, which follows the guidelines detailed in the National Institutes of Health Belmont Report (1978) and the Declaration of Helsinki. […] The remaining pellet of mononuclear cells was resuspended, counted, and plated at 1×10^6 cells/ml in RPMI supplemented with FCS (10%) and penicillin/streptomycin (1%). […]
RNA extraction from cells was carried out using a Purelink™ RNA kit (Invitrogen) according to the manufacturer's instructions. […] Isolated RNA was quantified using a NanoDrop 2000 spectrophotometer, and RNA concentration was normalised to the lowest concentration across all samples with RNAse-free water. If necessary, samples were DNAse-treated after quantification using DNAse I (Thermo Fisher) according to the manufacturer's instructions. […]

In the case of `COC(=O)/C=C/C(=O)OC` [DMF, dimethyl fumarate], in test [1], the “glycolysis (ECAR)” value is “suppressed glycolysis”.

As for `CCOC(=O)[C@@]12CCCC=C1N(Cc1ccc(-c3ccccc3)cc1)C(=O)[C@H]2CC(=O)NC` [FHIN1, Fumarate hydratase-IN-1], the IL10 expression entry in test [2] and in test [3] was “suppressed” throughout. Also, the Tnfa expression result in test [2] and in test [3] was “increased” throughout.
